Test results reported in patent EP1997826A2, “Synthetic ligands for immunoglobulins and pharmaceutical compositions containing them” (Tecnogen S.p.A., priority 2007, dated 2008).
pIC50: −log10 of the molar value.

Columns and labels:
[1] = test system: female mice of the Balb/c strain; assay type: in vivo, mouse
Protocol: Active cutaneous anaphylaxis on the mouse ear was induced according to the procedure described by Inagaki et al., Japan. J. Pharmacol. 1992, 59:201-208. Female mice of the Balb/c strain were immunized with the ovalbumin antigen in the presence of the adjuvant aluminium hydroxide gel (alum). The immunizations were carried out by intraperitoneal administration of 25 µg of ovalbumin and 1 mg of alum dissolved in 200 µl of PBS. A control group received intraperitoneal injections that only contained 1 mg of alum dissolved in 200 µl of PBS. […] After 30 minutes, the appearance, on the mouse ear, of stained areas in the dermis, with extent and intensity of staining proportional to the quantity of allergen injected, was observed. […] The sample was then stirred and filtered, and finally the amount of dye was determined with a spectrophotometer, taking readings at 620 nm. […] Extraction and quantification of the Evans Blue dye, discharged in the local inflammatory reaction, were carried out as described previously.

[2] = test system: RBL 2H3 cells; assay: assay for degranulation of the RBL 2H3 cells (release of β-hexose-aminidase induced by anti-DNP IgE and DNP-BSA antigen); assay type: cell-based, rat; settings: for percentage inhibition of the degranulation reaction: added together with the antigen; for concentration able to reduce 50% of the cellular degranulation: RBL 2H3 cells, 0.5 µg/ml IgE, 0.05 µg/ml DNP-BSA; for pIC50: read-out: concentration able to reduce 50% of the cellular degranulation
Excerpt: The RBL 2H3 cell line, rat basophils that express the receptor with high affinity for the immunoglobulins of class E (FcεRl), is widely used for investigating allergic reactions, because in this cell line the chemical mediators of inflammation are released as a result of allergen specific-IgE-FcεRI binding.
Release of the enzyme β-hexose-aminidase, which is present together with histamine in the granules of mast cells and basophils, can be used as an index of cellular degranulation (Tanaka et al., 1991, Chem. Pharm. Bull, 39, 2072-2076; McCloskey et al., 1988, Proc. Natl. Acad. Sci., USA, 85, 7260-7264).
The activity of the enzyme β-hexose-aminidase, released by the stimulated RBL 2H3 cells, was determined by the method described by Yamanishi et al., 1995, Jour. Biotech. Biochem., 59 (7), 1272-1275, which envisages measurement of the enzymatic activity by measuring the absorbance of the product p-nitrophenol generated by the synthetic substrate p-nitrophenyl-N-acetyl-β-D-glucosamide. 1x10^5 RBL 2H3 cells, trypsinized from plates at confluence, were resuspended in a volume of 80 µl of the culture medium (MEM + 10% inactivated fetal bovine serum) and distributed in each well of the 96-well plates (Costar). After 24 hours, 20 µl of medium containing anti-2,4-dinitrophenol monoclonal IgEs (DNP, Sigma, Cat. No. D-8406) was added to each well.
The microplates were incubated at 37°C for one hour and then washed three times with 100 µl of HBS buffer solution (10 mM HEPES, 135 mM NaCl, 5 mM KCI, 1 mM CaCl2, 0.5 mM MgCl2, 5.6 mM glucose, 0.1 % BSA, pH 7.4). After the washings, 100 µl of HBS containing the 2,4-dinitrophenol antigen conjugated to BSA (Sigma, Cat. No. A-6661) was added. As a control, 100 µl of HBS containing 1% Triton X-100 was added to some wells to determine the total amount of enzyme contained in the cellular granules.
After further incubation at 37°C for two hours, 30 µl of cellular supernatant or of cellular lysate was transferred to a new microplate, to which 50 µl of sodium citrate buffer at pH 4.5, containing 4 mM p-nitrophenyl-N-acetyl-β-D-glucosaminide (Sigma, Cat. No. N9376), a specific substrate for the enzyme β-hexose-aminidase, had been added beforehand. After incubation for two hours at 37°C, the reaction was stopped by adding 100 µl of glycine solution 0.2 M, pH 10.7. The enzymatic activity was determined by measuring the absorbance at 405 nm with a Microplate Reader Model 3550 EIA (Bio-Rad).
In preliminary experiments the immunoglobulins E and the antigen were added at various concentrations in order to determine the optimum concentrations for induction of the reaction of enzymatic release. The conditions identified experimentally correspond to 0.5 µg/ml of IgE and 0.05 µg/ml of antigen DNP conjugated to BSA.
To verify the capacity of the peptides of formula IB and of comparative peptides for inhibiting the degranulation of the RBL 2H3 cells, the peptides were added in the assay together with the antigen at concentrations between 0.1 and 500 µg/ml.

[3] = Concentration of Peptide 0.1 µg/ml
[4] = Concentration of Peptide 1 µg/ml
[5] = Concentration of Peptide 10 µg/ml
[6] = Concentration of Peptide 50 µg/ml
[7] = Concentration of Peptide 100 µg/ml
[8] = Concentration of Peptide 500 µg/ml

| Molecule | Inhibition of skin reaction (%) ([1]; Dose of Peptide 100 mg/kg intraperitoneally, 30 minutes before ovalbumin) | activity greater than the activity of the comparative peptide ([1]; mouse ear active cutaneous anaphylaxis) | percentage inhibition of the degranulation reaction [2, 3] [%] | percentage inhibition of the degranulation reaction [2, 4] [%] | percentage inhibition of the degranulation reaction [2, 5] [%] | percentage inhibition of the degranulation reaction [2, 6] [%] | percentage inhibition of the degranulation reaction [2, 7] [%] | percentage inhibition of the degranulation reaction [2, 8] [%] | concentration able to reduce 50% of the cellular degranulation [2] [µg/mL] | activity greater than the activity of the comparative peptide ([2]; degranulation of RBL 2H3 cells) | pIC50 [2] |
| --- | --- | --- | --- | --- | --- | --- | --- | --- | --- | --- | --- |
| (H-L-Cys(p-MeOBzl)-D-Arg-D-Thr-D-Tyr)4-L-Lys2-L-Lys-L-Lys-OH [Peptide IB] | 100 | approx. 15 times | 20 | 76 | 80 | 82 | 85 | 90 | 1 | approx. 15 times | ~6.52 |
| C[C@H](O)[C@@H](NC(=O)[C@H](N)CCCNC(=N)N)C(=O)N[C@H](Cc1ccc(O)cc1)C(=O)NCCCC[C@H](NC(=O)[C@@H](Cc1ccc(O)cc1)NC(=O)[C@H](NC(=O)[C@H](N)CCCNC(=N)N)[C@H](C)O)C(=O)NCCCC[C@H](NC(=O)[C@H](CCCCNC(=O)[C@@H](Cc1ccc(O)cc1)NC(=O)[C@H](NC(=O)[C@H](N)CCCNC(=N)N)[C@H](C)O)NC(=O)[C@@H](Cc1ccc(O)cc1)NC(=O)[C@H](NC(=O)[C@H](N)CCCNC(=N)N)[C@H](C)O)C(=O)NCC(=O)O [Comparative peptide, (H-D-Arg-D-Thr-D-Tyr-)4-L-Lys2-L-Lys-Gly-OH, reference compound] |  |  | 0 | 40 | 49 | 59 | 62 | 70 | 10 |  | 5.34 |
